Results from publication PMC6505380, “An Extensively Humanized Mouse Model to Predict Pathways of Drug Disposition and Drug/Drug Interactions, and to Facilitate Design of Clinical Trials” (Drug Metabolism and Disposition, 2019).
Where two headings read alike, the source gives them in different places.

Key:
CYP3A4 [1] = molecular target: T1, CYP3A4 (Homo sapiens, UniProt P08684); assay: 7-Benzyloxyquinoline O-debenzylation in liver microsomes of rifampicin- or vehicle-treated 8HUM mice; type: in vitro ADME; settings: liver microsomes of rifampicin-treated 8HUM mice
T1 construct: pooled rifampicin-treated male and female 8HUM mice (8HUM) or pooled human liver microsomes (HLM); host or cells: liver microsomes: pooled human liver; liver of 8HUM mice carrying human CYP3A4/CYP3A7 under the human promoter
T1 sequence (P08684 whole entry): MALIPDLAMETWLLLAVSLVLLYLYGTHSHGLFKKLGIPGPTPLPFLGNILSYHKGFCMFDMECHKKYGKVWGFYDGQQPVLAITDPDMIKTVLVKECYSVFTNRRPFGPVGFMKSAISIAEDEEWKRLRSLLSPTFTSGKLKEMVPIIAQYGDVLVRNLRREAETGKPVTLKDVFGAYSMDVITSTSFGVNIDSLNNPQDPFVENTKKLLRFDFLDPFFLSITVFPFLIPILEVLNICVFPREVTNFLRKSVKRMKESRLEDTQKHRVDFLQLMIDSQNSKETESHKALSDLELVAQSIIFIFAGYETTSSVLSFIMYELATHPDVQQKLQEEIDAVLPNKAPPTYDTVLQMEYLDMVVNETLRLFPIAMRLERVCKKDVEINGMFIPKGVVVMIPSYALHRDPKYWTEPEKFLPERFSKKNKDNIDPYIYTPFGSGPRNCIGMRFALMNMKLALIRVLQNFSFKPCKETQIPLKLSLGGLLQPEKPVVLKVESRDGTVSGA

CYP1A2 [2] = molecular target: T2, CYP1A2 (Homo sapiens, UniProt P05177)
T2 sequence (P05177 1-516): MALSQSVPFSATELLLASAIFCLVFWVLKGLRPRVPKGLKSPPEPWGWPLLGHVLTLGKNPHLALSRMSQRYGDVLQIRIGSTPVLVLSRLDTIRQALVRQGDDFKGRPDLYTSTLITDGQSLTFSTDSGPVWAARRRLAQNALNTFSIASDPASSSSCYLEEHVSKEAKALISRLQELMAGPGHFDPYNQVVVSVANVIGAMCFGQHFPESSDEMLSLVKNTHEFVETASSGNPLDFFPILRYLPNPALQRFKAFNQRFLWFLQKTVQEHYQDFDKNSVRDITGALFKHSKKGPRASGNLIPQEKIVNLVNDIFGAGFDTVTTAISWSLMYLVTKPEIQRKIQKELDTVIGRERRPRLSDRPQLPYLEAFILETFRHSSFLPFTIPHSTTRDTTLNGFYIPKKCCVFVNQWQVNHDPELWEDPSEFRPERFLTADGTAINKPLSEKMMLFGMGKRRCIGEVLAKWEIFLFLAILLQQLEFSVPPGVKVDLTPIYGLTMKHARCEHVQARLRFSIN
Procedure: (§2) A mixture of either 7-methoxyresorufin or 7-ethoxyresorufin (1 μM) and 8HUM liver microsomes or HLM (∼0.38 mg protein/ml) in 100 mM potassium phosphate buffer (pH 7.4) supplemented with MgCl2 (3.3 mM) was incubated at 37°C for 5 minutes before the addition of NADPH (final concentration 1.2 mM). […] Slopes of the linear part of the kinetic curves were calculated using Ascent Software Version 2.4.1 (Labsystems). For each reaction two controls, with and without reaction product resorufin (40 pmol) were run. Fluorescence was measured from both control wells and the difference in fluorescence intensity between wells with and without resorufin was used for the conversion of the relative fluorescence units to the picomoles of the reaction product.

CYP3A4 [3] = assay: CYP3A4 induction by PXR activators in humanized CAR/PXR/CYP3A4 mice; settings: CAR/PXR/CYP3A4 model (Supplemental Fig. 4)
Description: We therefore sought to identify a specific, clinically relevant PXR agonist that was nontoxic. […] Subsequent studies were therefore undertaken using SJW to induce CYP3A4 expression in 8HUM mice.

CYP1A2 [4] = molecular target: T2, CYP1A2; assay: Enzyme inhibition assay, caffeine to paraxanthine (HLM, 8HUM microsomes); settings: caffeine 220 μM in cocktail, furafylline 3, enoxacin 200, fluconazole 300, sulfaphenazole 3, quinidine 3, paroxetine 10, ketoconazole 1 μM
Procedure: (§1) After a 5-minute preincubation at 37°C, reactions were initiated by addition of NADPH (1.3 mM). […] The samples were then centrifuged at 3000g for 55 minutes at 4°C, and an aliquot of the supernatant fraction was analyzed by LC-MS/MS. All experiments were performed at least in triplicate.

CYP2D6 [5] = molecular target: CYP2D6 (Homo sapiens, UniProt P10635, R296C/S486T); assay: Enzyme inhibition assay, debrisoquine 4-hydroxylation (HLM, 8HUM microsomes); settings: 8HUM microsomes […]; debrisoquine 67 μM in cocktail; furafylline 3, enoxacin 200, fluconazole 300, sulfaphenazole 3, quinidine 3, paroxetine 10, ketoconazole 1 μM
Procedure: as §1

CYP2D6 [6] = assay: as above; settings: for Debrisoquine (4-OH Debrisoquine) activity, percent of activity measured in the absence of inhibitor: HLM […], debrisoquine 67 μM in cocktail, furafylline 3, enoxacin 200, fluconazole 300, sulfaphenazole 3, quinidine 3, paroxetine 10, ketoconazole 1 μM
Procedure: as §1

CYP2C9 [7] = molecular target: T3, CYP2C9 (Homo sapiens, UniProt P11712); assay: Enzyme inhibition assay, tolbutamide hydroxylation (HLM, 8HUM microsomes); settings: tolbutamide 2 μM in cocktail, furafylline 3, enoxacin 200, fluconazole 300, sulfaphenazole 3, quinidine 3, paroxetine 10, ketoconazole 1 μM
T3 sequence (P11712 whole entry): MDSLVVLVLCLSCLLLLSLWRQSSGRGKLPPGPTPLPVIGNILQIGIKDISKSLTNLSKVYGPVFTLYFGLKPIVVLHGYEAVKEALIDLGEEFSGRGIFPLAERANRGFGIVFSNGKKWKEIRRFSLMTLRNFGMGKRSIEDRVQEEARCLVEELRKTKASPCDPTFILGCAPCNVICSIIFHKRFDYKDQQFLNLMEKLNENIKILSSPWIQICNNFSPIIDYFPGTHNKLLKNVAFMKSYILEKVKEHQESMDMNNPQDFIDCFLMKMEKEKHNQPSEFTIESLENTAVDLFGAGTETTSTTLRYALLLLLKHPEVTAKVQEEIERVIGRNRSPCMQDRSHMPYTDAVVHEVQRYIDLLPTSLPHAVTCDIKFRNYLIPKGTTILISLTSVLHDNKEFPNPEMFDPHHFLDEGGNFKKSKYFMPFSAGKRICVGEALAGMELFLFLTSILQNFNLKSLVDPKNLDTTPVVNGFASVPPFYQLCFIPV
Procedure: as §1

[8] = Pharmacokinetics of cassette-dosed probe drugs in 8HUM mice with or without rifampicin pretreatment; settings: female, mouse, in vivo, po, AUCall, female 8HUM mice, oral cassette: caffeine, debrisoquine, tolbutamide 5 mg/kg, midazolam 3 mg/kg
Procedure: Female 8HUM mice received either two daily intraperitoneal doses of RIF (n = 4; 20–26 weeks) or vehicle (corn oil; n = 4; 25–29 weeks). […] Blood samples (10 μl) were collected at the indicated time points after dosing, mixed immediately with 10 μl of heparin (15 IU/ml), snap frozen in liquid nitrogen, and stored at approximately −70°C prior to analysis (see Supplemental Data for details).
Pharmacokinetic parameters were calculated by Phoenix WinNonlin version 8.0.0.3176 (Certara, Princeton, NJ).
Fig. 2. […] Data shown are mean ± S.D.

CYP3A4 [9] = molecular target: T1, CYP3A4; assay: Kinetic parameters of 1-hydroxyl midazolam formation in liver microsomes (HLM, 8HUM); type: in vitro ADME; settings: pH 7.4
Procedure: All samples were handled in amber tubes under conditions of subdued light for the duration of the procedure. […] The samples were then centrifuged at 3000g for 55 minutes at 4°C and an aliquot of the supernatant fraction was analyzed by LC-MS/MS.
Calibration curves were constructed with authentic metabolite standards and linear regression analysis used to calculate the amount of metabolite formed in each test sample. […] The 7-ethoxyresorufin O-deethylation assay was carried out as detailed below.

CYP2C9 [10] = molecular target: T3, CYP2C9; settings: sulfaphenazole 50 μM
[11] = design: method as in Cross et al., 2014; settings: WT mice; ref Cross et al., 2014; cited from earlier work
[12] = Osimertinib pharmacokinetics in 8HUM mice: effect of rifampicin and β-naphthoflavone; settings: female, mouse, in vivo, po, 25 mg/kg; for AUC / Cmax: female 8HUM mice, osimertinib 25 mg/kg oral
Description: Humans and rodents metabolize drugs down different pathways and also generate different metabolites both in their site of oxidation as well as in different metabolite ratios when multiple sites of oxidation are involved. […] Mice were pretreated with either RIF or a combination of RIF and β-naphthoflavone (BNF), an aryl hydrocarbon receptor agonist that induces P450s in the CYP1A gene family.
Fig. 4. […] Osimertinib structure and sites of metabolism in humans (C) are also shown. […] Panel B prints no name for the measured substance; it is presumably Osimertinib, the name printed in panel A.

CYP1A2 [13] = molecular target: T2, CYP1A2; assay: in vitro; settings: 8HUM, mouse, microsomes, pH 7.4, Inhibition of 7-methoxyresorufin metabolism
Procedure: as §2

[14] = RIF + BNF 80 mg/kg i.p. daily 3 days
[15] = RIF in diet (equivalent 10 mg/kg) 3 days

c1ccc(COc2ccc3cccnc3c2)cc1 [7-BQ, 7-benzyloxyquinoline]
Rate of 7-BQ hydroxylation (metabolism) (CYP3A4 [1]): 4218 ± 550 pmol/min per milligram

COc1ccc2nc3ccc(=O)cc-3oc2c1 [7-methoxyresorufin]
Rate of 7-methoxyresorufin metabolism (CYP1A2 [2]): 42.84 ± 9.93 pmol/min per milligram

O=C1Nc2ccc(Cl)cc2[C@@](C#CC2CC2)(C(F)(F)F)O1 [EFV, efavirenz]
Induction of CYP3A4 (CYP3A4 [3]): effective inducers of CYP3A4

OC(Cn1cncn1)(Cn1cncn1)c1ccc(F)cc1F [Fluconazole, fluconazole]
Caffeine (Paraxanthine) activity, percent of activity measured in the absence of inhibitor (CYP1A2 [4]; 8HUM microsomes […]): 100 ± 31%
Caffeine (Paraxanthine) activity, percent of activity measured in the absence of inhibitor (CYP1A2 [4]; HLM […]): 114 ± 37%
Debrisoquine (4-OH Debrisoquine) activity, percent of activity measured in the absence of inhibitor (CYP2D6 [5]): 88 ± 19%
Debrisoquine (4-OH Debrisoquine) activity, percent of activity measured in the absence of inhibitor (CYP2D6 [6]): 96 ± 9%
Tolbutamide (OH-Tolbutamide) activity, percent of activity measured in the absence of inhibitor (CYP2C9 [7]; 8HUM microsomes […]): 41 ± 33%
Tolbutamide (OH-Tolbutamide) activity, percent of activity measured in the absence of inhibitor (CYP2C9 [7]; HLM […]): 35 ± 21%

Cc1nc2c([nH]1)c(=O)n(C)c(=O)n2Cc1ccco1 [Furafylline, furafylline]
Debrisoquine (4-OH Debrisoquine) activity, percent of activity measured in the absence of inhibitor (CYP2D6 [5]): 91 ± 13%
Debrisoquine (4-OH Debrisoquine) activity, percent of activity measured in the absence of inhibitor (CYP2D6 [6]): 65 ± 9%
Tolbutamide (OH-Tolbutamide) activity, percent of activity measured in the absence of inhibitor (CYP2C9 [7]; 8HUM microsomes […]): 63 ± 19%
Tolbutamide (OH-Tolbutamide) activity, percent of activity measured in the absence of inhibitor (CYP2C9 [7]; HLM […]): 103 ± 25%

Cc1ncc2n1-c1ccc(Cl)cc1C(c1ccccc1F)=NC2 [Midazolam, midazolam]
AUC ([8]; rifampicin 10 mg/kg i.p. daily for 2 days pretreatment): 68.8 ± 21.1 ng·h/mL
AUC ([8]; vehicle (corn oil) i.p. pretreatment): 860 ± 138 ng·h/mL
Km at 2 min (CYP3A4 [9]; both sexes, 8HUM, mouse, liver microsomes of pooled rifampicin-treated 8HUM mice): 1.2 ± 0.3 µM
Km at 2 min (CYP3A4 [9]; human, pooled human liver microsomes): 0.73 ± 0.2 µM

CCC1(c2ccccc2)C(=O)NC(=O)NC1=O [PB, phenobarbital]
Induction of CYP3A4 (CYP3A4 [3]): effective inducers of CYP3A4

Fc1ccc([C@@H]2CCNC[C@H]2COc2ccc3c(c2)OCO3)cc1 [Paroxetine, paroxetine]
Debrisoquine (4-OH Debrisoquine) activity, percent of activity measured in the absence of inhibitor (CYP2D6 [6]): 52 ± 11%
Species difference in extent of inhibition of debrisoquine 4-hydroxylation (HLM vs 8HUM microsomes) (CYP2D6 [6]; HLM vs microsomes from 8HUM mice): 4 fold

C=C[C@H]1C[N@@]2CC[C@H]1C[C@@H]2[C@@H](O)c1ccnc2ccc(OC)cc12 [Quinidine, quinidine]
Debrisoquine (4-OH Debrisoquine) activity, percent of activity measured in the absence of inhibitor (CYP2D6 [5]): 43 ± 5%

Nc1ccc(S(=O)(=O)Nc2ccnn2-c2ccccc2)cc1 [Sulfaphenazole, sulfaphenazole]
Remaining tolbutamide 4-hydroxylation activity in the presence of inhibitor (CYP2C9 [10]; liver microsomes of control 8HUM mice): 2.01 ± 0.33 pmol/min per milligram
Remaining tolbutamide 4-hydroxylation activity in the presence of inhibitor (CYP2C9 [10]; liver microsomes of rifampicin-treated 8HUM mice): 11.43 ± 9.38 pmol/min per milligram
Tolbutamide (OH-Tolbutamide) activity, percent of activity measured in the absence of inhibitor (CYP2C9 [7]; 8HUM microsomes […]): 28 ± 15%
Tolbutamide (OH-Tolbutamide) activity, percent of activity measured in the absence of inhibitor (CYP2C9 [7]; HLM […]): 14 ± 4%

C=CC(=O)Nc1cc(Nc2nccc(-c3cn(C)c4ccccc34)n2)c(OC)cc1N(C)CCN(C)C [osimertinib]
half-life [11]: 3.5 h
half-life ([12]; 8HUM mice, osimertinib 25 mg/kg by oral gavage): 20 h
AUC ([12]; Control (normal RM1 diet)): 3750 ± 614 ng·h/mL
Cmax ([12]; Control (normal RM1 diet)): 199 ± 29 ng/mL
AUC [12, 14]: 661 ± 132 ng·h/mL
Cmax [12, 14]: 71 ± 7 ng/mL
AUC [12, 15]: 2140 ± 631 ng·h/mL
Cmax [12, 15]: 139 ± 26 ng/mL

O=c1cc(-c2ccccc2)oc2c1ccc1ccccc12 [α-naphthoflavone]
inhibition at 3.33 μM (CYP1A2 [13]): 75%
